Experimental data reported in patent US20210130401A1, “PEPTIDOMIMETIC INHIBITORS OF THE WDR5-MLL INTERACTION” (THE REGENTS OF THE UNIVERSITY OF MICHIGAN, priority 2017, published 2021).
Like-named read-outs stand apart in the source and are kept apart here. Starred links: 1 amine or outer side, 2 acyl side, 3 side chain; linkers in the order of their positions; H or OH if unused. Positions of bridges follow the written chain, without caps; N, C: chain ends. Non-standard residues stand in square brackets, D forms with d. Residues, ends and D or L forms follow the SMILES beside them. *: point of attachment. dαMeLys(Me) = CN(CCCC[C@@](C)(N[*:1])C(=O)[*:2])[*:3]; Arg(Nω,Nω'-propylene) = N[C@@H](CCCNC1=NCCCN1)C(=O)O; Orn(2-imidazolinyl) = N[C@@H](CCCNC1=NCCN1)C(=O)O; dαMeDab = C[C@](CCN[*:3])(N[*:1])C(=O)[*:2]; dPhg(4-F) = N[C@@H](C(=O)O)c1ccc(F)cc1; dPhg(2-F) = N[C@@H](C(=O)O)c1ccccc1F; dCha = N[C@H](CC1CCCCC1)C(=O)O; dPhg = N[C@@H](C(=O)O)c1ccccc1; Pyridin(2-yl) = c1ccc(*)nc1; dOrn = NCCC[C@@H](N)C(=O)O; Isobutyryl = CC(C)C(=O)*; Orn = NCCC[C@H](N)C(=O)O; dDap = NC[C@@H](N)C(=O)O; Nva = CCC[C@H](N)C(=O)O; Abu = CC[C@H](N)C(=O)O

What was measured:
[1] = target: T1, WDR5 (Homo sapiens, UniProt P61964); experiment: fluorescence polarization (FP) based competitive binding assay to WDR5 protein
T1 construct: N-terminal His-tagged WDR5 protein (residues 24-334), named WDR5Δ23; made in house; host or cells: E. coli Rosetta 2 (DE3)
Experimental: The plates were incubated at room temperature on a shaker for 3h, and then the mP values were measured using the Tecan Infinite M-1000 plate reader (Tecan U.S., Research Triangle Park, N.C.).

[2] = system: MOLM-13 leukemia cells carrying MLL-AF9 fusion; experiment: cell viability assay (WST-8), MOLM-13; type: cell-based; details: Homo sapiens, MOLM-13, 96 h, read-out: MOLM-13 IC50 (μM)
[3] = calculated from IC50 by published equation, read-out: Binding Affinity to WDR5 Ki ± SD
[4] = read-out: Binding Affinity to WDR5 IC50 ± SD

Compound | Ki [1, 3] | IC50 [1, 4] | IC50 [2] | IC50 [1] | Ki [1]
CC[C@@H]1NC(=O)[C@H](CCCNC(=N)N)NC(=O)[C@H](NC(=O)C(C)C)CCCCNC(=O)[C@@H](c2ccccc2)NC1=O [Cpd. No. 73, N-((3R,6S,9S,12R)-6-ethyl-9-(3-guanidinopropyl)-2,5,8,11-tetraoxo-3-phenyl-1,4,7,10-tetraazacyclohexadecan-12-yl)isobutyramide] (Isobutyryl-[dK]R[Abu][dPhg]; lactam 1-C) | 60.3 ± 11.9 nM | 298 ± 58 nM | – | – | –
CC[C@@H]1NC(=O)[C@H](CCCNc2ccccn2)NC(=O)[C@](C)(NC(=O)C(C)C)CCNC(=O)[C@@H](c2ccccc2)NC1=O [Cpd. No. 12, N-((3R,6S,9S,12R)-6-ethyl-12-methyl-2,5,8,11-tetraoxo-3-phenyl-9-(3-(pyridin-2-ylamino)propyl)-1,4,7,10-tetraazacyclotetradecan-12-yl)isobutyramide] (Isobutyryl-[dαMeDab][Orn](Pyridin(2-yl))[Abu][dPhg]; lactam 1-C) | – | – | > 10 µM | 3.25 nM | < 1 nM
CC[C@@H]1NC(=O)[C@H](CCCNC(=N)N)NC(=O)[C@](C)(NC(=O)C(C)C)CCNC(=O)[C@@H](c2ccc(OC)cc2)NC1=O [Cpd. No. 93, N-((3R,6S,9S,12R)-6-ethyl-9-(3-guanidinopropyl)-3-(4-methoxyphenyl)-12-methyl-2,5,8,11-tetraoxo-1,4,7,10-tetraazacyclotetradecan-12-yl)isobutyramide] | – | – | 0.083 µM | 1.79 nM | < 1 nM
CC[C@@H]1NC(=O)[C@H](CCCNC(=N)N)NC(=O)[C@](C)(NC(=O)C(C)C)CCNC(=O)[C@@H](c2cccc(OC)c2)NC1=O [Cpd. No. 94, N-((3R,6S,9S,12R)-6-ethyl-9-(3-guanidinopropyl)-3-(3-methoxyphenyl)-12-methyl-2,5,8,11-tetraoxo-1,4,7,10-tetraazacyclotetradecan-12-yl)isobutyramide] | – | – | 0.56 µM | 4 nM | < 1 nM
CC[C@@H]1NC(=O)[C@H](CCCNC(=N)N)NC(=O)[C@](C)(NC(=O)C(C)C)CCCCN(C)C(=O)[C@@H](c2ccccc2)NC1=O [Cpd. No. 65, N-((3R,6S,9S,12R)-6-ethyl-9-(3-guanidinopropyl)-1,12-dimethyl-2,5,8,11-tetraoxo-3-phenyl-1,4,7,10-tetraazacyclohexadecan-12-yl)isobutyramide] (Isobutyryl-[dαMeLys(Me)]R[Abu][dPhg]; lactam 1-C) | – | – | – | 1.6 ± 0.3 nM | < 1 nM
CC[C@@H]1NC(=O)[C@H](CCCNC(=N)NC(C)=O)NC(=O)[C@](C)(NC(=O)C(C)C)CCNC(=O)[C@@H](c2ccccc2)NC1=O [Cpd. No. 91, N-((3R,6S,9S,12R)-9-(3-(3-acetylguanidino)propyl)-6-ethyl-12-methyl-2,5,8,11-tetraoxo-3-phenyl-1,4,7,10-tetraazacyclotetradecan-12-yl)isobutyramide] (Isobutyryl-[dαMeDab]R(Ac)[Abu][dPhg]; lactam 1-C) | – | – | 0.47 µM | 3.65 nM | < 1 nM
CC[C@@H]1NC(=O)[C@H](CCCNC2=NCCCN2)NC(=O)[C@](C)(NC(=O)C(C)C)CCNC(=O)[C@@H](c2ccc3ccccc3c2)NC1=O [Cpd. No. 98, N-((3R,6S,9S,12R)-6-ethyl-12-methyl-3-(naphthalen-2-yl)-2,5,8,11-tetraoxo-9-(3-((1,4,5,6-tetrahydropyrimidin-2-yl)amino)propyl)-1,4,7,10-tetraazacyclotetradecan-12-yl)isobutyramide] | – | – | 0.039 µM | 2.54 nM | < 1 nM
CC[C@@H]1NC(=O)[C@H](CCCNC(=N)N)NC(=O)[C@H](NC(=O)C(C)C)CNC(=O)[C@@H](c2ccccc2)NC1=O [Cpd. No. 71, N-((3R,6S,9S,12R)-6-ethyl-9-(3-guanidinopropyl)-2,5,8,11-tetraoxo-3-phenyl-1,4,7,10-tetraazacyclotridecan-12-yl)isobutyramide] (Isobutyryl-[dDap]R[Abu][dPhg]; lactam 1-C) | 242 ± 33 nM | 1190 ± 160 nM | – | – | –
CC[C@@H]1NC(=O)[C@H](CCCNC(=N)N)NC(=O)[C@](C)(NC(=O)C(C)C)CCNC(=O)[C@@H](c2cccc(Cl)c2)NC1=O [Cpd. No. 84, N-((3R,6S,9S,12R)-3-(3-chlorophenyl)-6-ethyl-9-(3-guanidinopropyl)-12-methyl-2,5,8,11-tetraoxo-1,4,7,10-tetraazacyclotetradecan-12-yl)isobutyramide] | – | – | 0.51 µM | 1.48 nM | < 1 nM
CC(C)C(=O)N[C@]1(C)CCNC(=O)[C@@H](c2ccccc2)NC(=O)[C@H](C(C)C)NC(=O)[C@H](CCCNC(=N)N)NC1=O [Cpd. No. 89, N-((3R,6S,9S,12R)-9-(3-guanidinopropyl)-6-isopropyl-12-methyl-2,5,8,11-tetraoxo-3-phenyl-1,4,7,10-tetraazacyclotetradecan-12-yl)isobutyramide] (Isobutyryl-[dαMeDab]RV[dPhg]; lactam 1-C) | – | – | > 10 µM | 1.83 nM | < 1 nM
CCC[C@@H]1NC(=O)[C@H](CCCNC(=N)N)NC(=O)[C@](C)(NC(=O)C(C)C)CCNC(=O)[C@@H](c2ccccc2)NC1=O [Cpd. No. 88, N-((3R,6S,9S,12R)-9-(3-guanidinopropyl)-12-methyl-2,5,8,11-tetraoxo-3-phenyl-6-propyl-1,4,7,10-tetraazacyclotetradecan-12-yl)isobutyramide] (Isobutyryl-[dαMeDab]R[Nva][dPhg]; lactam 1-C) | – | – | 6.33 µM | 2.38 nM | < 1 nM
CC[C@@H]1NC(=O)[C@H](CCCNC(=N)N)NC(=O)[C@](C)(NC(=O)C(C)C)CCNC(=O)[C@@H](c2ccccc2F)NC1=O [Cpd. No. 79, N-((3R,6S,9S,12R)-6-ethyl-3-(2-fluorophenyl)-9-(3-guanidinopropyl)-12-methyl-2,5,8,11-tetraoxo-1,4,7,10-tetraazacyclotetradecan-12-yl)isobutyramide] (Isobutyryl-[dαMeDab]R[Abu][dPhg(2-F)]; lactam 1-C) | – | – | 0.35 µM | 0.32 nM | < 1 nM
CC[C@@H]1NC(=O)[C@H](CCCNC(=N)N)NC(=O)[C@H](NC(=O)C(C)C)CCCNC(=O)[C@@H](c2ccccc2)NC1=O [Cpd. No. 72, N-((3R,6S,9S,12R)-6-ethyl-9-(3-guanidinopropyl)-2,5,8,11-tetraoxo-3-phenyl-1,4,7,10-tetraazacyclopentadecan-12-yl)isobutyramide] (Isobutyryl-[dOrn]R[Abu][dPhg]; lactam 1-C) | 32.9 ± 5.3 nM | 164 ± 26 nM | – | – | –
CC[C@@H]1NC(=O)[C@H](CCCNC2=NCCN2)NC(=O)[C@](C)(NC(=O)C(C)C)CCNC(=O)[C@@H](c2ccccc2)NC1=O [Cpd. No. 17, N-((3R,6S,9S,12R)-9-(3-((4,5-dihydro-1H-imidazol-2-yl)amino)propyl)-6-ethyl-12-methyl-2,5,8,11-tetraoxo-3-phenyl-1,4,7,10-tetraazacyclotetradecan-12-yl)isobutyramide] (Isobutyryl-[dαMeDab][Orn(2-imidazolinyl)][Abu][dPhg]; lactam 1-C) | – | – | 0.088 µM | 2.4 nM | < 1 nM
CC[C@@H]1NC(=O)[C@H](CCCNC2=NCCCN2)NC(=O)[C@](C)(NC(=O)C(C)C)CCNC(=O)[C@@H](c2ccccc2)NC1=O [Cpd. No. 92, N-((3R,6S,9S,12R)-6-ethyl-12-methyl-2,5,8,11-tetraoxo-3-phenyl-9-(3-((1,4,5,6-tetrahydropyrimidin-2-yl)amino)propyl)-1,4,7,10-tetraazacyclotetradecan-12-yl)isobutyramide] (Isobutyryl-[dαMeDab][Arg(Nω,Nω'-propylene)][Abu][dPhg]; lactam 1-C) | – | – | 0.033 µM | 1.86 nM | < 1 nM
CC[C@@H]1NC(=O)[C@H](CCCNC(=N)N)NC(=O)[C@](C)(NC(=O)C(C)C)CCCCN(C)C(=O)[C@@H](c2ccc(Cl)cc2)NC1=O [Cpd. No. 67, N-((3R,6S,9S,12R)-3-(4-chlorophenyl)-6-ethyl-9-(3-guanidinopropyl)-1,12-dimethyl-2,5,8,11-tetraoxo-1,4,7,10-tetraazacyclohexadecan-12-yl)isobutyramide] | – | – | – | 1.5 ± 0.9 nM | < 1 nM
CC[C@@H]1NC(=O)[C@H](CCCNC(=N)N)NC(=O)[C@](C)(NC(=O)C(C)C)CCNC(=O)[C@@H](c2ccc3ccccc3c2)NC1=O [Cpd. No. 82, N-((3R,6S,9S,12R)-6-ethyl-9-(3-guanidinopropyl)-12-methyl-3-(naphthalen-2-yl)-2,5,8,11-tetraoxo-1,4,7,10-tetraazacyclotetradecan-12-yl)isobutyramide] | – | – | 0.054 µM | 2.3 nM | < 1 nM
CC[C@@H]1NC(=O)[C@H](CCCNC(=N)N)NC(=O)[C@](C)(NC(=O)C(C)C)CCNC(=O)[C@@H](c2ccc(F)cc2)NC1=O [Cpd. No. 53, N-((3R,6S,9S,12R)-6-ethyl-3-(4-fluorophenyl)-9-(3-guanidinopropyl)-12-methyl-2,5,8,11-tetraoxo-1,4,7,10-tetraazacyclotetradecan-12-yl)isobutyramide] (Isobutyryl-[dαMeDab]R[Abu][dPhg(4-F)]; lactam 1-C) | – | – | 0.38 µM | 0.878 nM | < 1 nM
CC[C@@H]1NC(=O)[C@H](CCCNC(=N)NC(C)=O)NC(=O)[C@](C)(NC(=O)C(C)C)CCNC(=O)[C@@H](CC2CCCCC2)NC1=O [Cpd. No. 26, N-((3R,6S,9S,12R)-9-(3-(3-acetylguanidino)propyl)-3-(cyclohexylmethyl)-6-ethyl-12-methyl-2,5,8,11-tetraoxo-1,4,7,10-tetraazacyclotetradecan-12-yl)isobutyramide] (Isobutyryl-[dαMeDab]R(Ac)[Abu][dCha]; lactam 1-C) | – | – | 1.02 µM | – | –
CC[C@@H]1NC(=O)[C@H](CNC2CCN(C)CC2)NC(=O)[C@](C)(NC(=O)C(C)C)CCNC(=O)[C@@H](c2ccccc2)NC1=O [Cpd. No. 7, N-((3R,6S,9S,12R)-6-ethyl-12-methyl-9-(((1-methylpiperidin-4-yl)amino)methyl)-2,5,8,11-tetraoxo-3-phenyl-1,4,7,10-tetraazacyclotetradecan-12-yl)isobutyramide] | – | – | > 10 µM | – | –
